Results on one compound are retold here after patent US12630536B2, “Cyanotriazine derivative, preparation method therefor, and application thereof” (Chengdu Fanxi Biopharma Co., LTD., priority 2020, dated 2026).

SMILES strings stand for the structures.

This assay deals with TR beta-UAS-bla HEK 293T Cells. In words: TR cell-based agonist detection, β-lactamase reporter (LiveBLAzer FRET B/G), TR beta. On the procedure: A method for testing a THR-α/β activation activity of a compound by an in-vitro cell level was as follows.
Compounds were transferred to a 384-well plate by an ECHO liquid workstation, and each compound was diluted by 3 times with 10 gradient concentrations, which was in triplicate. 1.5×10^4 DMEM-cultured cells (TR beta-UAS-bla HEK 293T Cells) or 1.0×10^4 TR alpha-UAS-bla HEK 293T Cells were placed in the 384-well plate. HEK 293T-TR beta was incubated in an incubator for 16 hours, and HEK 293T-TR alpha was incubated in an incubator for 24 hours. A LiveBLAzer™-FRET B/G (CCF4-AM) substrate was added into the cell plate to detect expression of β-lactamase in cells, and under excitation of 409 nm, a product produced fluorescence with a wavelength of 447 nm. When the β-lactamase was not expressed, under excitation of 409 nm, fluorescence with a wavelength of 520 nm was directly produced through FRET. Combination between the compound and the protein was determined by detecting a ratio of the two kinds of fluorescence (blue/green, 460 nm/530 nm), thus calculating EC50 of the compound. […] Calculation of a factor Z (greater than 0.5) would be used for monitoring a stability of each experiment.

Regarding `Cn1cnc2ccc(Oc3c(Br)cc(-n4nc(C#N)c(=O)[nH]c4=O)cc3Br)cc21` [Compound 1, 2-(3,5-dibromo-4-((1-methyl-1H-benzo[d]imidazol-6-yl)oxy)phenyl)-3,5-dioxo-2,3,4,5-tetra hydro-1,2,4-triazine-6-carbonitrile], where the note is “Homo sapiens, HEK-293T, 16 h, TR_cell-based agonist, TR_β, read-out: Maximum activity ratio (A460/A530)”, the Emax worked out at 41.1%. Moreover, the EC50 (Homo sapiens, Detection of TR_cell-based agonist, HEK 293T-TR beta, 16 hours, read-out: TR_β_EC50) is 577 nM. The “Measurement of cpd/T3 (maximum ratio)” value (TR_cell-based agonist, TR_β, maximum relative to T3) is reported as 7.5%. In addition, the α/β (TR_cell-based agonist, ratio TR_α EC50 / TR_β EC50) turned out to be 7.49.
